Seven compounds from ChEMBL document CHEMBL1130633, “Beta-analogs of PLG (L-prolyl-L-leucyl-glycinamide): ex-chiral pool syntheses and dopamine D2 receptor modulating effects” (Bioorg Med Chem Lett, 1998) can be followed below.

Where a SMILES comes first, the peptide text is derived from it.

The target in this assay is D(2) dopamine receptor (Bos taurus) (UniProt P20288). Nature of the assay: Compound was evaluated for its ability to enhance the binding of the dopamine receptor agonist [3H]pramipexole to Dopamine receptor D2 at a concentration of 10E-9 M.
D(2) dopamine receptor (Bos taurus), sequence (P20288 whole entry): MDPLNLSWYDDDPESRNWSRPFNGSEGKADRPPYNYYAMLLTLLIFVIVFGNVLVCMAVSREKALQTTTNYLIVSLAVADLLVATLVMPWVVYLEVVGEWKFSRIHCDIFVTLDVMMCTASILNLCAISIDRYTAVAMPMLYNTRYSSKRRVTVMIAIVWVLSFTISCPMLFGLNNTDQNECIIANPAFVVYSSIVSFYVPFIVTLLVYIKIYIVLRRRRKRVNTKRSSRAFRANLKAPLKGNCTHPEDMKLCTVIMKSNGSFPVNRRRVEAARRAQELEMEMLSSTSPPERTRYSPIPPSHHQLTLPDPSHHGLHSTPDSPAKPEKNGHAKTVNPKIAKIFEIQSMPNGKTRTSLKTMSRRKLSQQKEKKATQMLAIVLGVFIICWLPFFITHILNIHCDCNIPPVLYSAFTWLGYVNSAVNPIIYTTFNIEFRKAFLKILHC
As for `CC(C)C[C@H](NC(=O)[C@H]1CCNC1)C(=O)NCC(N)=O`, the Binding was determined as 107%.

Regarding `CC(C)C[C@H](NC(=O)[C@H]1CNC[C@H]1Cc1ccccc1)C(=O)NCC(N)=O`, the Binding was determined as 99.6%.

Consider `CC(C)C[C@H](NC(=O)[C@@H]1CNC[C@@H]1Cc1ccccc1)C(=O)NCC(N)=O`, for which the Binding was 104%.

As to `CC(C)C[C@H](NC(=O)[C@@H]1CCCN1)C(=O)NCC(N)=O` (H-Pro-Leu-Gly-NH2), the Binding was found to be 109%.

For `CC(C)C[C@H](NC(=O)[C@@H]1CCNC1)C(=O)NCC(N)=O`, the Binding stood at 104%.

Consider `CC(C)C[C@H](NC(=O)[C@H]1CNC[C@@H]1Cc1ccccc1)C(=O)NCC(N)=O`, for which the Binding came out at 109%.

Regarding `CC(C)C[C@H](NC(=O)[C@@H]1CNC[C@H]1Cc1ccccc1)C(=O)NCC(N)=O`, the Binding is 108%.
